Key:
[1] = target: T1, Human Factor XIIa (Homo sapiens, UniProt P00748); experiment: Determination of Factor XIIa inhibitory activity in vitro (fluorogenic substrate H-DPro-Phe-Arg-AFC); format: biochemical; conditions: Human Factor XIIa (Enzyme Research Laboratories), 25° C., read-out: Human FXIIa IC50
T1 construct: purchased Enzyme Research Laboratories
T1 sequence (P00748 373-615 limits assumed): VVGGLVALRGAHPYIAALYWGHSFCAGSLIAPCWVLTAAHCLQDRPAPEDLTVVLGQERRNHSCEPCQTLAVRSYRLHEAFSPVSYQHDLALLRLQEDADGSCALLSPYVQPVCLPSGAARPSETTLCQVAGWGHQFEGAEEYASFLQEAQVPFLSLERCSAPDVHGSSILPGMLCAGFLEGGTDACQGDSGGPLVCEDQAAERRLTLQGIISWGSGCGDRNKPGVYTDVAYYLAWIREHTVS
T1 sequence (P00748 20-372 partner limits assumed): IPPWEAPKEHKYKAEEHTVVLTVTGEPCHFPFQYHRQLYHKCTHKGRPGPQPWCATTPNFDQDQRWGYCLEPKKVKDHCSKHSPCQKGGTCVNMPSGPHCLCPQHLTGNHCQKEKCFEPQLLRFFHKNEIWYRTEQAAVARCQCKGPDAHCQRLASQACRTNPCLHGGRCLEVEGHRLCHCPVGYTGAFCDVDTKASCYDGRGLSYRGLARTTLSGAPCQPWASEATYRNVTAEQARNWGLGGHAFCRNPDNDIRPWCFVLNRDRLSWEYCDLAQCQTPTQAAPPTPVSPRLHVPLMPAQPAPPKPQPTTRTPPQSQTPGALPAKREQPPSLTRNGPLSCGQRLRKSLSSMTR
In short: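 In vitro inhibition of human Factor XIIa (sourced from Enzyme Research Laboratories) was measured by incubating the enzyme at 25° C. with the fluorogenic substrate H-DPro-Phe-Arg-AFC across a range of test compound concentrations. The initial reaction rate, taken as residual enzyme activity, was followed by the […], and IC50 values were calculated.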

[2] = target: T2, Human FXIa (Homo sapiens, UniProt P03951); experiment: Determination of FXIa inhibitory activity in vitro (fluorogenic substrate Z-Gly-Pro-Arg-AFC); format: biochemical; conditions: Selectivity, Human FXIa (Enzyme Research Laboratories), 25° C.
T2 construct: purchased Enzyme Research Laboratories
T2 sequence (P03951 388-625 limits assumed): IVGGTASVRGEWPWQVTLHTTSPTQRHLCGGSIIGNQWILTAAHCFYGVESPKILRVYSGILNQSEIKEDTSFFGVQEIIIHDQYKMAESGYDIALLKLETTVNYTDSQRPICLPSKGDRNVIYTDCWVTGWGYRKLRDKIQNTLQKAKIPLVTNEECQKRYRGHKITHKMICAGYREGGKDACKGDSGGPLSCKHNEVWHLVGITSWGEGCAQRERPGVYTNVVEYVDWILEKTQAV
T2 sequence (P03951 19-387 partner limits assumed): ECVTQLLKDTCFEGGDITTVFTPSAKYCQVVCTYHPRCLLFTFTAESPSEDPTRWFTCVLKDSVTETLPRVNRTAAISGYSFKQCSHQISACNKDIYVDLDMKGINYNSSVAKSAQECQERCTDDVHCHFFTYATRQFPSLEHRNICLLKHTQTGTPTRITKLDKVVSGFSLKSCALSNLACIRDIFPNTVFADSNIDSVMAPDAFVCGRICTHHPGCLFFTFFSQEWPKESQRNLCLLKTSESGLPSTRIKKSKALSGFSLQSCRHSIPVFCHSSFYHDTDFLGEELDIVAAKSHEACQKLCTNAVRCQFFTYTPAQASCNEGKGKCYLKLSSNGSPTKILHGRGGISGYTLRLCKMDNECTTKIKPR

| IC50 [1] | IC50 [2] | SMILES |
| --- | --- | --- |
| 0.3 to 1 µM | > 40 µM | CN1CCC(CNc2nccnc2C(=O)NCc2ccc3c(N)nccc3c2)CC1 [Example 4.03, N-((1-aminoisoquinolin-6-yl)methyl)-3-(((1-methylpiperidin-4-yl)methyl)amino)pyrazine-2-carboxamide] |
| 1 to 3 µM | > 40 µM | CN1CCC(CNc2cncc(C(=O)NCc3ccc4c(N)nccc4c3)n2)CC1 [Example 4.04] |
| 3 to 10 µM | > 40 µM | CN1CCC(CNc2cnc(C(=O)NCc3ccc4c(N)nccc4c3)cn2)CC1 [Example 4.05] |
| 1 to 3 µM | > 40 µM | COc1ccc(C(=O)NCc2ccc3c(N)nccc3c2)c(NCC2CCN(C)CC2)n1 [Example 4.06] |
| 0.3 to 1 µM | 23.6 µM | CN1CCC(CNc2nc(Cl)ccc2C(=O)NCc2ccc3c(N)nccc3c2)CC1 [Example 4.07] |
| 10 to 40 µM | > 40 µM | CN1CCC(CNc2nccc(Cl)c2C(=O)NCc2ccc3c(N)nccc3c2)CC1 [Example 4.08] |
| < 0.3 µM | > 40 µM | CN1CCC(CNc2ncc(Br)cc2C(=O)NCc2ccc3c(N)nccc3c2)CC1 [Example 4.09] |
| 0.3 to 1 µM | > 40 µM | CN1CCC(CNc2ncc(C3CC3)cc2C(=O)NCc2ccc3c(N)nccc3c2)CC1 [Example 4.10] |
| 0.3 to 1 µM | > 40 µM | CN1CCC(CNc2ncc(-c3cccnc3)cc2C(=O)NCc2ccc3c(N)nccc3c2)CC1 [Example 4.11, N-((1-aminoisoquinolin-6-yl)methyl)-6-(((1-methylpiperidin-4-yl)methyl)amino)-[3,3′-bipyridine]-5-carboxamide] |
| 1 to 3 µM | > 40 µM | COc1cnc(NCC2CCN(C)CC2)c(C(=O)NCc2ccc3c(N)nccc3c2)c1 [Example 4.12] |
| 0.3 to 1 µM | > 40 µM | Cc1ccc(C(=O)NCc2ccc3c(N)nccc3c2)c(NCC2CCN(C)CC2)n1 [Example 4.13] |
| 10 to 40 µM | > 40 µM | Cc1ccnc(NCC2CCN(C)CC2)c1C(=O)NCc1ccc2c(N)nccc2c1 [Example 4.14] |
| 1 to 3 µM | > 40 µM | CN1CCC(CNc2nc(-c3ccccc3)ccc2C(=O)NCc2ccc3c(N)nccc3c2)CC1 [Example 4.15] |
| 0.3 to 1 µM | > 40 µM | CN1CCC(CNc2nc(-c3cccnc3)ccc2C(=O)NCc2ccc3c(N)nccc3c2)CC1 [Example 4.16] |
| 1 to 3 µM | > 40 µM | CN1CCC(CNc2nc(C3CC3)ccc2C(=O)NCc2ccc3c(N)nccc3c2)CC1 [Example 4.17] |
| 0.3 to 1 µM | 23.3 µM | CN1CCC(CNc2ncc(-c3ccccc3)nc2C(=O)NCc2ccc3c(N)nccc3c2)CC1 [Example 4.18] |
| < 0.3 µM | > 40 µM | CN1CCC(CNc2nc(Cl)c(Cl)cc2C(=O)NCc2ccc3c(N)nccc3c2)CC1 [Example 4.19] |
| 0.3 to 1 µM | 12.7 µM | CN1CCC(CNc2ncc(-c3cnn(C)c3)nc2C(=O)NCc2ccc3c(N)nccc3c2)CC1 [Example 4.20] |
| 0.3 to 1 µM | > 40 µM | Cc1cc(C(=O)NCc2ccc3c(N)nccc3c2)c(NCC2CCN(C)CC2)nc1C [Example 4.21] |
| 10 to 40 µM | > 40 µM | Nc1nccc2cc(CNC(=O)c3nccnc3Nc3ccc(N4CCNCC4)cc3)ccc12 [Example 4.22] |
| 0.3 to 1 µM | > 40 µM | CN1CCc2c(cccc2Nc2nccnc2C(=O)NCc2ccc3c(N)nccc3c2)C1 [Example 4.23] |
| 0.3 to 1 µM | > 40 µM | CN1CCc2cc(Nc3nccnc3C(=O)NCc3ccc4c(N)nccc4c3)ccc2C1 [Example 4.24] |
| 0.3 to 1 µM | > 40 µM | Nc1nccc2cc(CNC(=O)c3nccnc3NCC3CCN(CCO)CC3)ccc12 [Example 4.25] |
| 10 to 40 µM | > 40 µM | Nc1nccc2cc(CNC(=O)c3cnc(N4CCN(c5ccncc5)CC4)c(Cl)c3)ccc12 [Example 8.08] |
| 1 to 3 µM | > 40 µM | CN(CC1CCN(c2ccncc2)CC1)c1ncc(C(=O)NCc2ccc3c(N)nccc3c2)cc1Cl [Example 8.09, N-[(1-amino-6-isoquinolyl)methyl]-5-chloro-6-[methyl-[[1-(4-pyridyl)-4-piperidyl]methyl]amino]pyridine-3-carboxamide] |
| 10 to 40 µM | > 40 µM | N#Cc1cccc(CNc2ncc(C(=O)NCc3ccc4c(N)nccc4c3)cc2Cl)c1 [Example 11.28] |

| IC50 [1] | IC50 [2] | SMILES |
| --- | --- | --- |
| 10 to 40 µM | > 40 µM | COCCNc1ncc(C(=O)NCc2ccc3c(N)nccc3c2)cc1Cl [Example 11.29] |
| 10 to 40 µM | > 40 µM | CN(C)CCNc1ncc(C(=O)NCc2ccc3c(N)nccc3c2)cc1Cl [Example 11.30] |
| 10 to 40 µM | > 40 µM | Nc1nccc2cc(CNC(=O)c3cnc(NCCn4cncn4)c(Cl)c3)ccc12 [Example 11.31] |
| 10 to 40 µM | > 40 µM | CN1C(C)(C)CC(Nc2ncc(C(=O)NCc3ccc4c(N)nccc4c3)cc2Cl)CC1(C)C [Example 11.32] |
| 10 to 40 µM | > 40 µM | CN1CCC(Nc2ncc(C(=O)NCc3ccc4c(N)nccc4c3)cc2Cl)CC1 [Example 11.33] |
| 10 to 40 µM | > 40 µM | Nc1nccc2cc(CNC(=O)c3cnc(NC4CCNCC4)c(Cl)c3)ccc12 [Example 11.34] |
| 10 to 40 µM | > 40 µM | CN1CCC(Nc2ncc(C(=O)NCc3ccc4c(N)nccc4c3)cc2Cl)CC1=O (centres unmarked) [Example 11.35] |
| 3 to 10 µM | > 40 µM | CC(C)N1CCC(Nc2ncc(C(=O)NCc3ccc4c(N)nccc4c3)cc2Cl)CC1 [Example 11.36] |
| 10 to 40 µM | > 40 µM | CC(C)CN1CCC(Nc2ncc(C(=O)NCc3ccc4c(N)nccc4c3)cc2Cl)CC1 [Example 11.37] |
| 10 to 40 µM | > 40 µM | CS(=O)(=O)N1CCC(Nc2ncc(C(=O)NCc3ccc4c(N)nccc4c3)cc2Cl)CC1 [Example 11.38] |
| 10 to 40 µM | > 40 µM | CC(=O)N1CCC(Nc2ncc(C(=O)NCc3ccc4c(N)nccc4c3)cc2Cl)CC1 [Example 11.39] |
| 10 to 40 µM | > 40 µM | Nc1nccc2cc(CNC(=O)c3cnc(NC4CCN(c5nccs5)CC4)c(Cl)c3)ccc12 [Example 11.40] |
| 10 to 40 µM | > 40 µM | COCCN1CCC(Nc2ncc(C(=O)NCc3ccc4c(N)nccc4c3)cc2Cl)CC1 [Example 11.41] |
| 10 to 40 µM | > 40 µM | Nc1nccc2cc(CNC(=O)c3cnc(NC4CCN(C5CC5)CC4)c(Cl)c3)ccc12 [Example 11.42] |
| 3 to 10 µM | > 40 µM | Nc1nccc2cc(CNC(=O)c3cnc(OCCN4CCCCC4)c(Cl)c3)ccc12 [Example 13.26, N-((1-aminoisoquinolin-6-yl)methyl)-5-chloro-6-(2-(piperidin-1-yl)ethoxy)nicotinamide] |
| 3 to 10 µM | > 40 µM | Nc1nccc2cc(CNC(=O)c3cnc(OCCCN4CCCCC4)c(Cl)c3)ccc12 [Example 13.27] |
| 10 to 40 µM | > 40 µM | Nc1nccc2cc(CNC(=O)c3cc(Cl)cnc3N3CCN(c4ncccn4)CC3)ccc12 [Example 16.04] |
| 3 to 10 µM | > 40 µM | CC(=O)NCCN1CCN(c2ncc(Cl)cc2C(=O)NCc2ccc3c(N)nccc3c2)CC1 [Example 16.05] |
| 10 to 40 µM | 21 µM | Nc1nccc2cc(CNC(=O)c3ccc(CN4CCN(c5ccncc5)CC4)c(Cl)c3)ccc12 [Example 29.07, N-((1-aminoisoquinolin-6-yl)methyl)-3-chloro-4-((4-(pyridin-4-yl)piperazin-1-yl)methyl)benzamide] |
| 10 to 40 µM | > 40 µM | Nc1nccc2cc(CNC(=O)c3cnc(CN4CCN(c5ccncc5)CC4)c(Cl)c3)ccc12 [Example 29.08, N-[(1-amino-6-isoquinolyl)methyl]-5-chloro-6-[[4-(4-pyridyl)piperazin-1-yl]methyl]pyridine-3-carboxamide] |
| 3 to 10 µM | > 40 µM | CN1CCC(CNc2ncc(Cl)cc2C(=O)NCc2c(Cl)cccc2-n2cnnn2)CC1 [Example 33.01, 5-Chloro-N-{[2-chloro-6-(1,2,3,4-tetrazol-1-yl)phenyl]methyl}-2-{[(1-methylpiperidin-4-yl)methyl]amino}pyridine-3-carboxamide] |
| 10 to 40 µM | 20 µM | CN1CCC(CNc2nccnc2C(=O)Nc2ccc3c(c2)C(=O)NC3)CC1 [Example 33.02] |
| 10 to 40 µM | 20 µM | CN1CCC(CNc2nccnc2C(=O)Nc2ccc3nc[nH]c(=O)c3c2)CC1 [Example 33.03] |
| 10 to 40 µM | > 40 µM | CN1CCC(CNc2nccnc2C(=O)Nc2ccc3ccnc(N)c3c2)CC1 [Example 33.04] |
| 3 to 10 µM | 33.5 µM | CCOC(=O)c1cn(-c2ccc(OC)c(F)c2CNC(=O)c2nccnc2NCC2CCN(C)CC2)nn1 [Example 33.05] |
| 10 to 40 µM | 20 µM | CN1CCC(CNc2nccnc2C(=O)NCCc2cnc[nH]2)CC1 [Example 33.06] |
